Structures can show the parent of a compound that is named as a salt.

Experiment [1] deals with PI3Kγ (p110γ) Recombinant Human Protein (Homo sapiens (Human), UniProt P48736). The experiment is described as follows: PI3K-γ Scintillation Proximity Assay. The class given is biochemical. The note with it: read-out: PI3Kγ IC50. Put shortly:
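Radiometric SPA readout: […] bound to WGA beads after overnight shaking, IC50 derived from % activity of DMSO control. Reaction used human p110γ, 2 μM ATP, 20 μM PIP2, pH 6.7 MOPS buffer with MgCl2, DTT, CHAPS, 2% DMSO, room temperature.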
On the technique in general: In a scintillation proximity assay essentially only radioactivity close to the scintillant gives light.

In experiment [2] the target is PI3Kδ (p110δ/p85α) Recombinant Human Protein (Homo sapiens (Human), UniProt O00329). The experiment is described as follows: PI3Kδ Scintillation Proximity Assay. The class given is biochemical. An excerpt: Example C. PI3Kδ Scintillation Proximity Assay
Chain of PI3Kδ (p110δ/p85α) Recombinant Human Protein (O00329 whole entry): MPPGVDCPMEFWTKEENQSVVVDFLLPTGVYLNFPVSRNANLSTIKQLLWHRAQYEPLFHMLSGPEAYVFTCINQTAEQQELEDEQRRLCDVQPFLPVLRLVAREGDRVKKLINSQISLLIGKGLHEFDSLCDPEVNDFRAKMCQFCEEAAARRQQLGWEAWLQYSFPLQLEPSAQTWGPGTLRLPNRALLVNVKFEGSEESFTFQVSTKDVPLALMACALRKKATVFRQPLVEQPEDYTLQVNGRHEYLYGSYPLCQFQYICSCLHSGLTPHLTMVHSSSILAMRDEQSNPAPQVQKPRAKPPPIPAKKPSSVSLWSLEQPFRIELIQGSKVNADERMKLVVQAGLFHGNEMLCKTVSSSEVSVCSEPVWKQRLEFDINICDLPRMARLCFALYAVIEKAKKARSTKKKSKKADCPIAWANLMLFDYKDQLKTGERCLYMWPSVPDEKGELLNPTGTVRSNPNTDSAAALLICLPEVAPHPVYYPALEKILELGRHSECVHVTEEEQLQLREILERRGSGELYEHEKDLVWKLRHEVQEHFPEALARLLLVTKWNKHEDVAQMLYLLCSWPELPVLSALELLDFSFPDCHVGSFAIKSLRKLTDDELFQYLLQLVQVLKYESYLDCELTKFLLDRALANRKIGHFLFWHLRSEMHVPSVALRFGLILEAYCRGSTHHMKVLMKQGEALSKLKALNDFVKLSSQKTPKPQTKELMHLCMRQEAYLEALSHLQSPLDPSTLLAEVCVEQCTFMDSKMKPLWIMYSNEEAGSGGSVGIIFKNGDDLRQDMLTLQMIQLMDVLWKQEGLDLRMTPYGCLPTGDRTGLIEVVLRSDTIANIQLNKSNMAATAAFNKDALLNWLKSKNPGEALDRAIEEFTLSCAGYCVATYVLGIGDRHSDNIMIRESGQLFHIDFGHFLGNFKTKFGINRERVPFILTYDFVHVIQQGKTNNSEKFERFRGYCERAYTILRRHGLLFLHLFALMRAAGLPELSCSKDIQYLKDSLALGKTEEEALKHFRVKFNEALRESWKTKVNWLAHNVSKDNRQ
Chain of PI3Kδ (p110δ/p85α) Recombinant Human Protein (P27986 whole entry partner): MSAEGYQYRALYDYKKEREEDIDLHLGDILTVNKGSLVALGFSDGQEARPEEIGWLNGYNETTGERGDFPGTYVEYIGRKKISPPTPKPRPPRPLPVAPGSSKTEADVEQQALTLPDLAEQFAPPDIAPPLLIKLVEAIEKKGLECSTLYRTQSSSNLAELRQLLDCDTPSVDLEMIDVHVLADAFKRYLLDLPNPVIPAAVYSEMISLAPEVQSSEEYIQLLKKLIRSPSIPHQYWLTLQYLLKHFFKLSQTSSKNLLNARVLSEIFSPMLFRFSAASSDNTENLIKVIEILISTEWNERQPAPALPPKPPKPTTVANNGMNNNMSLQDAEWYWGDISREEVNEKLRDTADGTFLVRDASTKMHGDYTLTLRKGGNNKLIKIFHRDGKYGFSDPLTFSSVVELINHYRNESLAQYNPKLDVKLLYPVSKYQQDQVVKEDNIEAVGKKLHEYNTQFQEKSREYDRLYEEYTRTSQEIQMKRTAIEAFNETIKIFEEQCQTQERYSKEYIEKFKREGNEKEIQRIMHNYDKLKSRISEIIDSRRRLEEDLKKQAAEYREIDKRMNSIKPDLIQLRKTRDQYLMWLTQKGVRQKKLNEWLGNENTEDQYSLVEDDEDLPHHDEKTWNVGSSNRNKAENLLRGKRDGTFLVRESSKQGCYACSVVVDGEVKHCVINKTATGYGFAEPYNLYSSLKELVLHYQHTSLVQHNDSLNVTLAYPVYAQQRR
[γ-^33P]ATP (10 mCi/mL) and Wheat Germ Agglutinin (WGA) YSi SPA Scintillation Beads was purchased from Perkin-Elmer (Waltham, Mass.). Lipid kinase substrate, D-myo-Phosphatidylinositol 4,5-bisphosphate (PtdIns(4,5)P2)D (+)-sn-1,2-di-O-octanoylglyceryl, 3-O-phospho linked (PIP2), CAS 204858-53-7, was purchased from Echelon Biosciences (Salt Lake City, Utah). PI3Kδ (p110δ/p85α) Recombinant Human Protein was purchased from Eurofins (St Charles, Mo.). ATP, MgCl2, DTT, EDTA, MOPS and CHAPS were purchased from Sigma-Aldrich (St. Louis, Mo.).
The kinase reaction was conducted in polystyrene 384-well Greiner Bio-one white plate from Thermo Fisher Scientific in a final volume of 25 μL. Inhibitors were first diluted serially in DMSO and added to the plate wells before the addition of other reaction components. The final concentration of DMSO in the assay was 2%. The PI3Kδ assay was carried out at room temperature in 20 mM MOPS, pH 6.7, 10 mM MgCl2, 5 mM DTT and CHAPS 0.03%. Reactions were initiated by the addition of ATP, the final reaction mixture consisted of 20 μM PIP2, 2 μM ATP, 0.5 μCi [γ-^33P] ATP, 3.4 nM PI3Kδ. Reactions were incubated for 120 min and terminated by the addition of 40 μL SPA beads suspended in quench buffer: 163 mM potassium phosphate pH 7.8, 20% glycerol, 25 mM EDTA. The final concentration of SPA beads is 1.0 mg/mL. After the plate sealing, plates were shaken overnight at room temperature and centrifuged at 1500 rpm for 10 min, the radioactivity of the product was determined by scintillation counting on Topcount (Perkin-Elmer). IC50 determination was performed by fitting the curve of percent of the solvent control activity versus the log of the inhibitor concentration using the GraphPad Prism 6.0 software.

Chain of PI3Kγ (p110γ) Recombinant Human Protein (P48736 whole entry): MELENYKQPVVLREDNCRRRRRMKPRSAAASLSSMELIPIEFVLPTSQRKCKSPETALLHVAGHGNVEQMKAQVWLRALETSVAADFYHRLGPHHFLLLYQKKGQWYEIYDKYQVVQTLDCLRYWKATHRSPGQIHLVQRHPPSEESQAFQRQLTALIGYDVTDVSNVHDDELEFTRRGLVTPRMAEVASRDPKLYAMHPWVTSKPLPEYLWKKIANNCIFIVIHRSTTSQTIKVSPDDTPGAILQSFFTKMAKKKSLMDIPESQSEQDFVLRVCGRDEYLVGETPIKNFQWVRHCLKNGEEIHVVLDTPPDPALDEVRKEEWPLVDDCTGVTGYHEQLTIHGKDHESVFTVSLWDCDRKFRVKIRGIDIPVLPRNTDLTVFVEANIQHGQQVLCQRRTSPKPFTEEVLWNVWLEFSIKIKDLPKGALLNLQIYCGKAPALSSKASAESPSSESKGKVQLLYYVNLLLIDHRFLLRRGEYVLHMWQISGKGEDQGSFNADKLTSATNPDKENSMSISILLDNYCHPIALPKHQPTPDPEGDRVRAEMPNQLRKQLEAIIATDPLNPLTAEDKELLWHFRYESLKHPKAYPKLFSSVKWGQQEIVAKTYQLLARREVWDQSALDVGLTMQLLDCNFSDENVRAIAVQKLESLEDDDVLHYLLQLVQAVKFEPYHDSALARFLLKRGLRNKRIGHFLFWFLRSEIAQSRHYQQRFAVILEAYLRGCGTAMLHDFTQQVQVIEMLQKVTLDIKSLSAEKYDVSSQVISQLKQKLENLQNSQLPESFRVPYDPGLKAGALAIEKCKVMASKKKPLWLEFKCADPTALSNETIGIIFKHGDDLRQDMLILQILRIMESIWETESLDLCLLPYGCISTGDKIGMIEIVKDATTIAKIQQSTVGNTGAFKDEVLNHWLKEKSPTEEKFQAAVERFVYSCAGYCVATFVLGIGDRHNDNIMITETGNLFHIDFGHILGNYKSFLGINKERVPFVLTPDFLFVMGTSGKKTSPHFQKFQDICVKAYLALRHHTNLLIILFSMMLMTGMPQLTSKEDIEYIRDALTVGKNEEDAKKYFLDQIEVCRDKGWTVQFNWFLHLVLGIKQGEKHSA

Usually IC50 stands for the midpoint of a concentration-inhibition curve. In the case of `Cc1ccc(S(=O)(=O)N2CCN3CCCC3C2)cc1-c1cnc2c(N)ncnn12` (stereo not shown) [Example 198, 7-(5-((Hexahydropyrrolo[1,2-a]pyrazin-2(1H)-yl)sulfonyl)-2-methylphenyl)imidazo[2,1-f][1,2,4]triazin-4-amine], the values for the concentration for half-maximal inhibition (IC50) in experiment [1] and in experiment [2] were 100 to 500 nM and 500 to 2000 nM, respectively.

In the case of `Cc1ccc(S(=O)(=O)N2CCC(C)(C#N)C2)cc1-c1cnc2c(N)ncnn12` (stereo not shown) [Example 200, 1-((3-(4-Aminoimidazo[2,1-f][1,2,4]triazin-7-yl)-4-methylphenyl)sulfonyl)-3-methylpyrrolidine-3-carbonitrile], the results for the IC50 in experiment [1] and in experiment [2] were below 100 nM and 500 to 2000 nM, respectively.

Consider `Cc1ccc(S(=O)(=O)N2CCC(c3ccncc3)C2)cc1-c1cnc2c(N)ncnn12` (stereo not shown) [Example 201, 7-(2-Methyl-5-((3-(pyridin-4-yl)pyrrolidin-1-yl)sulfonyl)phenyl)imidazo[2,1-f][1,2,4]triazin-4-amine], for which the figures for the IC50 in experiment [1] and in experiment [2] were below 100 nM and 500 to 2000 nM, respectively.

For `Cc1ccc(S(=O)(=O)N2CCC3(CCCO3)C2)cc1-c1cnc2c(N)ncnn12` (stereo not shown) [Example 202, 7-(5-((1-Oxa-7-azaspiro[4.4]nonan-7-yl)sulfonyl)-2-methylphenyl)imidazo[2,1-f][1,2,4]triazin-4-amine], the values for the IC50 in experiment [1] and in experiment [2] were 100 to 500 nM and 500 to 2000 nM, respectively.

In the case of `Cc1ccc(S(=O)(=O)N2CCC(N(C)C)C2)cc1-c1cnc2c(N)ncnn12` (stereo not shown) [Example 204, 7-(5-((3-(Dimethylamino)pyrrolidin-1-yl)sulfonyl)-2-methylphenyl)imidazo[2,1-f][1,2,4]triazin-4-amine], the IC50 in experiment [1] was in the range of 100 to 500 nM; in experiment [2], 500 to 2000 nM.

For `Cc1ccc(S(=O)(=O)N2CCC3(CCC(F)(F)CC3)C2)cc1-c1cnc2c(N)ncnn12` [Example 207, 7-(5-((8,8-Difluoro-2-azaspiro[4.5]decan-2-yl)sulfonyl)-2-methylphenyl)imidazo[2,1-f][1,2,4]triazin-4-amine], the values for the IC50 in experiment [1] and in experiment [2] were below 100 nM and 100 to 500 nM, respectively.

For `Cc1ccc(S(=O)(=O)N2CCCC23CCOCC3)cc1-c1cnc2c(N)ncnn12` [Example 209, 7-(5-((8-Oxa-1-azaspiro[4.5]decan-1-yl)sulfonyl)-2-methylphenyl)imidazo[2,1-f][1,2,4]triazin-4-amine], the figures for the IC50 in experiment [1] and in experiment [2] were below 100 nM and 500 to 2000 nM, respectively.

`Cc1ccc(S(=O)(=O)N2CCC[C@H]2C(C)(C)O)cc1-c1cnc2c(N)ncnn12` [Example 213, (S)-2-(1-((3-(4-Aminoimidazo[2,1-f][1,2,4]triazin-7-yl)-4-methylphenyl)sulfonyl)pyrroldiin-2-yl)propan-2-ol]: the IC50 in experiment [1] was below 100 nM; in experiment [2] it was 500 to 2000 nM.

On to `N#Cc1ccc(S(=O)(=O)NC23CCC(C#N)(C2)C3)cc1-c1cnc2c(N)ncnn12` [Example 260, 3-(4-Aminoimidazo[2,1-f][1,2,4]triazin-7-yl)-4-cyano-N-(4-cyanobicyclo[2.1.1]hexan-1-yl)benzenesulfonamide trifluoroacetate salt], for which the IC50 in experiment [1] was below 100 nM; in experiment [2] it was 500 to 2000 nM.

On to `Cc1ccc(S(=O)(=O)N2CC3(CC(O)C3)C2)cc1-c1cnc2c(N)nc(C(F)(F)F)cn12` [Example 297, 2-((3-(8-amino-6-(trifluoromethyl)imidazo[1,2-a]pyrazin-3-yl)-4-methylphenyl)sulfonyl)-2-azaspiro[3.3]heptan-6-ol], for which the figures for the IC50 in experiment [1] and in experiment [2] were below 100 nM and 500 to 2000 nM, respectively.

`Cc1ccc(S(=O)(=O)N2CCN(C)C(=O)C2)cc1-c1cnc2c(N)nc(C(F)(F)F)cn12` [Example 298, 4-((3-(8-amino-6-(trifluoromethyl)imidazo[1,2-a]pyrazin-3-yl)-4-methylphenyl)sulfonyl)-1-methylpiperazin-2-one]: the IC50 is below 100 nM in experiment [1] and 500 to 2000 nM in experiment [2].

As for `Cc1ccc(S(=O)(=O)N2CCCC2c2c(C)noc2C)cc1-c1cnc2c(N)nc(C(F)(F)F)cn12` (stereo not shown) [Example 300, 3-(5-((2-(3,5-dimethylisoxazol-4-yl)pyrrolidin-1-yl)sulfonyl)-2-methylphenyl)-6-(trifluoromethyl)imidazo[1,2-a]pyrazin-8-amine], the IC50 in experiment [1] was below 100 nM; in experiment [2], 500 to 2000 nM.

With `Cc1ccc(S(=O)(=O)N2CC3CC3(C#N)C2)cc1-c1cnc2c(N)nc(C(F)(F)F)cn12` (stereo not shown) [Example 302, 3-((3-(8-amino-6-(trifluoromethyl)imidazo[1,2-a]pyrazin-3-yl)-4-methylphenyl)sulfonyl)-3-azabicyclo[3.1.0]hexane-1-carbonitrile], the IC50 is below 100 nM in experiment [1] and 500 to 2000 nM in experiment [2].

As to `Cc1ccc(S(=O)(=O)N2CC3NCC2C3O)cc1-c1cnc2c(N)nc(C(F)(F)F)cn12` (stereo not shown) [Example 303, 2-((3-(8-amino-6-(trifluoromethyl)imidazo[1,2-a]pyrazin-3-yl)-4-methylphenyl)sulfonyl)-2,5-diazabicyclo[2.2.1]heptan-7-ol 2HCl], the IC50 in experiment [1] was below 100 nM; in experiment [2] it was 500 to 2000 nM.

As for `Cc1ccc(S(=O)(=O)N2CCOC3CNCC32)cc1-c1cnc2c(N)nc(C(F)(F)F)cn12` (stereo not shown) [Example 304, 3-(5-((hexahydropyrrolo[3,4-b][1,4]oxazin-4(4aH)-yl)sulfonyl)-2-methylphenyl)-6-(trifluoromethyl)imidazo[1,2-a]pyrazin-8-amine], the half-maximal inhibitory concentration (IC50) in experiment [1] is below 100 nM; in experiment [2], 500 to 2000 nM.

`COC1CCCN(S(=O)(=O)c2ccc(C)c(-c3cnc4c(N)nc(C(F)(F)F)cn34)c2)C1` (stereo not shown) [Example 313, 3-(5-((3-Methoxypiperidin-1-yl)sulfonyl)-2-methylphenyl)-6-(trifluoromethyl)imidazo[1,2-a]pyrazin-8-amine]: the IC50 is below 100 nM in experiment [1] and 100 to 500 nM in experiment [2].

In the case of `CCN1CC2C(O)C1CN2S(=O)(=O)c1ccc(C)c(-c2cnc3c(N)nc(C(F)(F)F)nn23)c1` (stereo not shown) [Example 349, 2-((3-(4-amino-2-(trifluoromethyl)imidazo[2,1-f][1,2,4]triazin-7-yl)-4-methylphenyl)sulfonyl)-5-ethyl-2,5-diazabicyclo[2.2.1]heptan-7-ol], the IC50 in experiment [1] is below 100 nM; in experiment [2], 500 to 2000 nM.

Turning to `Cc1ccc(S(=O)(=O)N2CC3C(O)C2CN3C(C)C)cc1-c1cnc2c(N)nc(C(F)(F)F)nn12` (stereo not shown) [Example 350, 2-((3-(4-amino-2-(trifluoromethyl)imidazo[2,1-f][1,2,4]triazin-7-yl)-4-methylphenyl)sulfonyl)-5-isopropyl-2,5-diazabicyclo[2.2.1]heptan-7-ol], the results for the IC50 in experiment [1] and in experiment [2] were 100 to 500 nM and 500 to 2000 nM, respectively.

In the case of `Cc1ccc(S(=O)(=O)N2CC3C(O)C2CN3C2CCC(C#N)C2)cc1-c1cnc2c(N)nc(C(F)(F)F)nn12` (stereo not shown) [Example 351, 3-(5-((3-(4-amino-2-(trifluoromethyl)imidazo[2,1-f][1,2,4]triazin-7-yl)-4-methylphenyl)sulfonyl)-7-hydroxy-2,5-diazabicyclo[2.2.1]heptan-2-yl)cyclopentane-1-carbonitrile], the IC50 is below 100 nM in experiment [1] and 500 to 2000 nM in experiment [2].

Regarding `Cc1ccc(S(=O)(=O)N2CC3C(O)C2CN3C)cc1-c1cnc2c(N)nc(C(F)(F)F)nn12` (stereo not shown) [Example 352, 2-((3-(4-amino-2-(trifluoromethyl)imidazo[2,1-f][1,2,4]triazin-7-yl)-4-methylphenyl)sulfonyl)-5-methyl-2,5-diazabicyclo[2.2.1]heptan-7-ol], the IC50 in experiment [1] is below 100 nM; in experiment [2] it was 500 to 2000 nM.

The values are drawn from patent publication US10479795B2 (Incyte Corporation, priority 2016, dated 2019).
